Results taken from ChEMBL document CHEMBL5247649, “Comparative Efficacy and Selectivity of Pharmacological Inhibitors of DYRK and CLK Protein Kinases” (J Med Chem, 2023).

Experiments:
[1] = biological target: Cyclin-dependent kinase 5/CDK5 activator 1 (Homo sapiens, UniProt Q00535); test: biochemical; format: cell-based, Sf9
[2] = biological target: Casein kinase I isoform epsilon (Homo sapiens, UniProt P49674); test: biochemical; format: cell-based, Sf9
[3] = biological target: T1, Dual specificity protein kinase CLK1 (Homo sapiens, UniProt P49759); test: biochemical; format: cell-based, Sf9
T1 sequence (P49759 whole entry): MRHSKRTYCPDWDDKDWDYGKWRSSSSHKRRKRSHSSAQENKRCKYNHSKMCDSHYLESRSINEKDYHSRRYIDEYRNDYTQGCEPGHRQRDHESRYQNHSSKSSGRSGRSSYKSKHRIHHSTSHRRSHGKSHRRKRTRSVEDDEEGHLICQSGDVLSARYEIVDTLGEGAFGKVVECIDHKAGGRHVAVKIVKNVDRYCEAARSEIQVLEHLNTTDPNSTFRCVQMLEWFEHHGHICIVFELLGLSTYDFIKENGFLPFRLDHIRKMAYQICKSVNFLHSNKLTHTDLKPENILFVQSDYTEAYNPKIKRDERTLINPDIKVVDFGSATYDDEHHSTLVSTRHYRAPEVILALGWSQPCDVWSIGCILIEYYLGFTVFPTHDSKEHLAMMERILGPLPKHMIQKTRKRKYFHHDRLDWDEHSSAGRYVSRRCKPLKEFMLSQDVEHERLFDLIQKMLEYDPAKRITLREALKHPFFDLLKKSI

[4] = biological target: Dual specificity protein kinase CLK3 (Homo sapiens, UniProt P49761); test: biochemical; format: cell-based, Sf9
Chain of Dual specificity protein kinase CLK3 (P49761 whole entry): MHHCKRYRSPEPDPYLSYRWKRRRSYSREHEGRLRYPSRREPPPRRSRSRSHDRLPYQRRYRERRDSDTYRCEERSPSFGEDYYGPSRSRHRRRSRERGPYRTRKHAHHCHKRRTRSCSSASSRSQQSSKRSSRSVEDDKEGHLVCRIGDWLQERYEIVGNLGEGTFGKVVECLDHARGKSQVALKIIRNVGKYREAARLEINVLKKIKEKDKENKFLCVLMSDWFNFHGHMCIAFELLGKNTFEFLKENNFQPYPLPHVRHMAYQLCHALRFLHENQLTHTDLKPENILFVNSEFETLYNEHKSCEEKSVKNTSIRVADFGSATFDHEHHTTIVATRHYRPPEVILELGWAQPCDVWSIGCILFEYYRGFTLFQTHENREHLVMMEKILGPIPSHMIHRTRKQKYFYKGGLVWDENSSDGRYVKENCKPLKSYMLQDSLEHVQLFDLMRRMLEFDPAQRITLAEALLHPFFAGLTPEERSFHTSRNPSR

[5] = biological target: T2, Dual specificity tyrosine-phosphorylation-regulated kinase 2 (Homo sapiens, UniProt Q92630); test: biochemical; format: cell-based, Sf9
T2 sequence (Q92630 whole entry): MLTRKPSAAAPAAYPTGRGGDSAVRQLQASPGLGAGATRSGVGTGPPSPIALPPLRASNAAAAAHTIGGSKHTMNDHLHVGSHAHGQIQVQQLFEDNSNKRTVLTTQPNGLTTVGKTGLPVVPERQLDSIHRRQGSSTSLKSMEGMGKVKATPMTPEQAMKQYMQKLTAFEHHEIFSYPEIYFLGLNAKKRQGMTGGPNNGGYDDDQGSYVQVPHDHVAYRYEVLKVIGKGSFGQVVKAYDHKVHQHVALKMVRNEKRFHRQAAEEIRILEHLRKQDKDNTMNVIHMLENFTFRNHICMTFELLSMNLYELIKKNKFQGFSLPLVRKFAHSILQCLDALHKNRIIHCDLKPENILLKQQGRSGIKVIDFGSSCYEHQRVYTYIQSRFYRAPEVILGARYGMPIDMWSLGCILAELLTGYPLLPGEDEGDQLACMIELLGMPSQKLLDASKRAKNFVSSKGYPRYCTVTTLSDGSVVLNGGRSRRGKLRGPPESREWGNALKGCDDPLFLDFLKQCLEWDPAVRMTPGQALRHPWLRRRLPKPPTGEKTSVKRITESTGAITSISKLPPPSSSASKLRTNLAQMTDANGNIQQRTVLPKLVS

[6] = biological target: T3, Dual specificity tyrosine-phosphorylation-regulated kinase 3 (Homo sapiens, UniProt O43781); test: biochemical; format: cell-based, Sf9
T3 sequence (O43781 whole entry): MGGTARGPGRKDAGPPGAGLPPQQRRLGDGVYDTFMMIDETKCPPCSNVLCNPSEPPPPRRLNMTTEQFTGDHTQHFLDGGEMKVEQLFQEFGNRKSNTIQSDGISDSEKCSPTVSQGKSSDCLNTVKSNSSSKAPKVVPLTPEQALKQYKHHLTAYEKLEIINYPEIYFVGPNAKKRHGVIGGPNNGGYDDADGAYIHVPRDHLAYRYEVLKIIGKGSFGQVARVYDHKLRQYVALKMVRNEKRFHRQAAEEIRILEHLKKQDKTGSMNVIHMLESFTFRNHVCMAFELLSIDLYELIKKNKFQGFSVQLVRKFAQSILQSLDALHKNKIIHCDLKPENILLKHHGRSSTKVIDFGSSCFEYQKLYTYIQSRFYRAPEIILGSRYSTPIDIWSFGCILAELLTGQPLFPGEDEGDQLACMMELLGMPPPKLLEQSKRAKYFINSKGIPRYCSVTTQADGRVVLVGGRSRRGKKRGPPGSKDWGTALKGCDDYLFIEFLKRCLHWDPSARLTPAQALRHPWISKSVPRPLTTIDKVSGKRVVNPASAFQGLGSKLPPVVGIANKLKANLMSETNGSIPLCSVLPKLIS

[7] = biological target: T4, Dual specificity tyrosine-phosphorylation-regulated kinase 4 (Homo sapiens, UniProt Q9NR20); test: biochemical; format: cell-based, Sf9
T4 sequence (Q9NR20 whole entry): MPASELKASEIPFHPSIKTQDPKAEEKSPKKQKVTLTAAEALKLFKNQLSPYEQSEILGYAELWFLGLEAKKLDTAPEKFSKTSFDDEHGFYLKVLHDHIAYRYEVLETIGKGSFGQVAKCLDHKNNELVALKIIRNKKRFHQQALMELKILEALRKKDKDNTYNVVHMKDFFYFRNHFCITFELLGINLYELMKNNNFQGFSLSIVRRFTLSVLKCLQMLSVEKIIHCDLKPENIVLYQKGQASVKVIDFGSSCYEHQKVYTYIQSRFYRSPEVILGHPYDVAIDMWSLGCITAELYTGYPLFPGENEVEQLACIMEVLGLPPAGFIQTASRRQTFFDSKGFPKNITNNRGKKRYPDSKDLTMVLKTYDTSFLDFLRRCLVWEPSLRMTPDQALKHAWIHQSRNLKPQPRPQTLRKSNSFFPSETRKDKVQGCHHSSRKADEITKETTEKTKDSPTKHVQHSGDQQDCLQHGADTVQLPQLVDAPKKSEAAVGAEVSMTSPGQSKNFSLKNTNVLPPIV

[8] = biological target: T5, Glycogen synthase kinase-3 beta (Homo sapiens, UniProt P49841); test: biochemical; format: cell-based, Sf9
T5 sequence (P49841 whole entry): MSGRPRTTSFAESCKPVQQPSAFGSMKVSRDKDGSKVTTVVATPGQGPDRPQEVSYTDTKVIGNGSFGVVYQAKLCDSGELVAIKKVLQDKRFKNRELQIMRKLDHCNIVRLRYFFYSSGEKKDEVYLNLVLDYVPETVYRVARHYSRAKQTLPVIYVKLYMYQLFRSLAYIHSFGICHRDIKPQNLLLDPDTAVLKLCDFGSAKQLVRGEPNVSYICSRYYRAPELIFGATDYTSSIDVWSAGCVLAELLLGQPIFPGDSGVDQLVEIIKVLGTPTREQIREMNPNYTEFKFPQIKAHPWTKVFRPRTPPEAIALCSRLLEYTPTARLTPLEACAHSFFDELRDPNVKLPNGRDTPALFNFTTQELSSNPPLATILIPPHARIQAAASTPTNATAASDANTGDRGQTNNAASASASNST

[9] = in vitro; details: mouse, ht-22
[10] = biological target: Dual specificity protein kinase CLK2 (Homo sapiens, UniProt P49760); test: biochemical
Chain of Dual specificity protein kinase CLK2 (P49760 whole entry): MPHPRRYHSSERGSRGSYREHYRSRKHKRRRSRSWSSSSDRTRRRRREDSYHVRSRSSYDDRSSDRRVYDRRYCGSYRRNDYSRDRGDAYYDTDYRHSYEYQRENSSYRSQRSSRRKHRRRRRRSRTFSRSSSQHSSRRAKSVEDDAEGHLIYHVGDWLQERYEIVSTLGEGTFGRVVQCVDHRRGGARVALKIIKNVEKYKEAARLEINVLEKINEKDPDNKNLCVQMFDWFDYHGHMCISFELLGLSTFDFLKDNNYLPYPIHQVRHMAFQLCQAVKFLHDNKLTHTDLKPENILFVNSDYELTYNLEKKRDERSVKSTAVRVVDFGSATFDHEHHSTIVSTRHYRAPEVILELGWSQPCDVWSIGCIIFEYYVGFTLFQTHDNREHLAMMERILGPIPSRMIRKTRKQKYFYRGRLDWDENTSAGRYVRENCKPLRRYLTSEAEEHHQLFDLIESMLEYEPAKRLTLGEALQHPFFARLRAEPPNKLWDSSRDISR

[11] = biological target: Dual specificity protein kinase CLK4 (Homo sapiens, UniProt Q9HAZ1); test: biochemical
Chain of Dual specificity protein kinase CLK4 (Q9HAZ1 whole entry): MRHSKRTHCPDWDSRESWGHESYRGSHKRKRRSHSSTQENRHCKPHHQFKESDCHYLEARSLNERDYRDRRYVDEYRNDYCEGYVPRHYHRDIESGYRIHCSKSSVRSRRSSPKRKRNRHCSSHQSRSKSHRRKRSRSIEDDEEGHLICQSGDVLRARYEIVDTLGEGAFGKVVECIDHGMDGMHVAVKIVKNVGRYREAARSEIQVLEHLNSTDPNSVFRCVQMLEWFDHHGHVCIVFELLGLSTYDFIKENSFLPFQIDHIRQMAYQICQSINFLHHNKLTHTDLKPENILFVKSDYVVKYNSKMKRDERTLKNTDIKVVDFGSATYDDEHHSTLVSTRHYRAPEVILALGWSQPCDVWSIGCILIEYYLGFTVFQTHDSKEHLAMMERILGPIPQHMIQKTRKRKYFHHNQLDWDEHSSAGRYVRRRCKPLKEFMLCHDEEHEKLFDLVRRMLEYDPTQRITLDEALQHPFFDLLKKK

[12] = biological target: Dual specificity tyrosine-phosphorylation-regulated kinase 1A (Homo sapiens, UniProt Q13627); test: biochemical
[13] = biological target: T1, Dual specificity protein kinase CLK1; test: biochemical; format: cell-based, Sf9; details: read-out: IC50
[14] = biological target: T1, Dual specificity protein kinase CLK1
[15] = biological target: T5, Glycogen synthase kinase-3 beta

Chain of Casein kinase I isoform epsilon (P49674 whole entry, canonical isoform): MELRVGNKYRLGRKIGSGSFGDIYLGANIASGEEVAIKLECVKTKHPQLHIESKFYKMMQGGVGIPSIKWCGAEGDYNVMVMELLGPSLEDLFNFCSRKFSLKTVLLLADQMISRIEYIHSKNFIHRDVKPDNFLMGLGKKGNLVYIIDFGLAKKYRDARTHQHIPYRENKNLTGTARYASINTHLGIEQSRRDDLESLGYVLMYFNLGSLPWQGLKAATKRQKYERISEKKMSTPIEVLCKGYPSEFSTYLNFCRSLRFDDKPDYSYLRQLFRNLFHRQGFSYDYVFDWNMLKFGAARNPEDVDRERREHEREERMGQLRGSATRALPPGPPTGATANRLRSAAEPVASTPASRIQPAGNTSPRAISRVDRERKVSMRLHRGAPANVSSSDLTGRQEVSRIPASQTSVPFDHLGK
Chain of Cyclin-dependent kinase 5/CDK5 activator 1 (Q00535 whole entry, canonical isoform): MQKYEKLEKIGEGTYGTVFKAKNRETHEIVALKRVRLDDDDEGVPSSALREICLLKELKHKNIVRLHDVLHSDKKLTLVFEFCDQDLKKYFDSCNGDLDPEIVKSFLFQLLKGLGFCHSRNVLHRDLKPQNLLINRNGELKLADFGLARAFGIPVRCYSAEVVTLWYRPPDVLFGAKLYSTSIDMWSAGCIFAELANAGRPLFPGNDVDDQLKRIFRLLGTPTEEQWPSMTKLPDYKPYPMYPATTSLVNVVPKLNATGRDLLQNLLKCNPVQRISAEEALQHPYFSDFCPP
Chain of Cyclin-dependent kinase 5/CDK5 activator 1 (Q15078 whole entry, further chain, canonical isoform): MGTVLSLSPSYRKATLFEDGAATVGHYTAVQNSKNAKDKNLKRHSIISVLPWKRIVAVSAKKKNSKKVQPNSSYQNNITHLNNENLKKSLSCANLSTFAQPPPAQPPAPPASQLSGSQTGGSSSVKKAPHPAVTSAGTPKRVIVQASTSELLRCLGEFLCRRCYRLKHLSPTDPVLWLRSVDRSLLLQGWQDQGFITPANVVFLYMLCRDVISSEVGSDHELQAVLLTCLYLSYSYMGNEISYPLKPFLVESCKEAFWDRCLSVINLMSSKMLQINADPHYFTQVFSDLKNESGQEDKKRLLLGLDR

Row | Structure (SMILES) | IC50 [1] | IC50 [2] | IC50 [3] | IC50 [4] | IC50 [5] | IC50 [6] | IC50 [7] | IC50 [8] | IC50 at 48 h [9] | IC50 [10] | IC50 [11] | IC50 [12] | IC50 [13] | Kd [14] | Kd [15]
1 | CCOc1ccc2nc(N3CCCN(C(=S)Nc4ccccc4F)CC3)c(C#N)cc2c1 | > 10 µM | > 10 µM | > 10 µM | > 10 µM | > 10 µM | > 10 µM | > 10 µM | > 10 µM | > 100 µM | > 10 µM | > 10 µM | > 10 µM | – | – | –
2 | CC(C)(c1ccc(O)cc1)c1ccc(O)cc1 [BISPHENOL A] | > 10 µM | > 10 µM | > 10 µM | > 10 µM | > 10 µM | > 10 µM | > 10 µM | > 10 µM | 97 µM | > 10 µM | > 10 µM | > 10 µM | – | – | –
3 | COc1cc(N2CCN(C)CC2)ccc1Nc1nccc(-c2cn(C)c3cnccc23)n1 | 1.06 µM | > 10 µM | 0.568 µM | > 10 µM | 0.764 µM | 1.22 µM | 6.25 µM | > 10 µM | 27.8 µM | 3.5 µM | 0.403 µM | – | 0.175 µM | 0.00735 µM | > 10 µM
4 | COc1cc(CCc2c(O)ccc(O[C@@H]3O[C@H](CO)[C@@H](O)[C@H](O)[C@H]3O)c2C(C)=O)ccc1O [SCORZODIHYDROSTILBENE A] | > 10 µM | > 10 µM | > 10 µM | > 10 µM | > 10 µM | > 10 µM | > 10 µM | > 10 µM | > 100 µM | > 10 µM | > 10 µM | 2.3 µM | – | – | –
5 | CC(=O)c1nccc2c1[nH]c1ccccc12 | > 10 µM | > 10 µM | > 10 µM | > 10 µM | > 10 µM | > 10 µM | > 10 µM | > 10 µM | > 100 µM | > 10 µM | > 10 µM | > 10 µM | – | – | –
6 | Cn1cc(-c2ccc3occ(-c4cccc(-c5ccncc5)c4)c3n2)cn1 | > 10 µM | > 10 µM | – | – | 3.04 µM | > 10 µM | > 10 µM | 2.86 µM | 2.6 µM | – | 0.0839 µM | 1.14 µM | – | – | –
7 | Cc1cccc(N(C)c2nccc(-c3cnn4ncccc34)n2)c1 | > 10 µM | > 10 µM | 0.125 µM | > 10 µM | > 10 µM | > 10 µM | > 10 µM | > 10 µM | 30.1 µM | 0.269 µM | 0.0909 µM | 0.435 µM | – | – | –
8 | O=C1NC(=Nc2c(Cl)cccc2Cl)S/C1=C\c1ccc2nccnc2c1 | > 10 µM | 1.77 µM | 0.0211 µM | 0.0926 µM | 0.0156 µM | 0.0227 µM | 0.108 µM | 3.09 µM | 27.8 µM | 0.0953 µM | 0.014 µM | – | 0.0136 µM | 0.000395 µM | 0.939 µM
9 | c1ccc(-c2ccc3[nH]ncc3c2)cc1 | 1.8 µM | > 10 µM | 0.0396 µM | 1.69 µM | 1.25 µM | 5.85 µM | > 10 µM | 7.51 µM | 42.5 µM | 0.211 µM | 0.015 µM | – | 0.0242 µM | 0.00163 µM | 1.98 µM
10 | Cc1cc(C(=O)NC2Nc3cccc(C)c3N2[C@H]2CCCCN(C(=O)/C=C/CN(C)C)C2)ccn1 (some centres not stated) | > 10 µM | > 10 µM | > 10 µM | > 10 µM | > 10 µM | > 10 µM | > 10 µM | 5.26 µM | 60 µM | 5.96 µM | > 10 µM | > 10 µM | – | – | –
11 | COc1ccc2c3ccnc(Cl)c3n(CC#N)c2c1 | > 10 µM | > 10 µM | 0.157 µM | 4.92 µM | 0.813 µM | 1.22 µM | 8.37 µM | > 10 µM | 97 µM | 0.63 µM | 0.0238 µM | – | 0.0883 µM | 0.0087 µM | 2.58 µM

Other lines, results leading:

Row | IC50 [1] | IC50 [2] | IC50 [3] | IC50 [4] | IC50 [5] | IC50 [6] | IC50 [7] | IC50 [8] | IC50 at 48 h [9] | IC50 [10] | IC50 [11] | IC50 [12] | IC50 [13] | Kd [14] | Kd [15] | Structure (SMILES)
12 | > 10 µM | > 10 µM | 0.57 µM | > 10 µM | 3.35 µM | > 10 µM | > 10 µM | > 10 µM | 9 µM | 1.99 µM | 0.89 µM | – | 0.18 µM | 0.0708 µM | > 10 µM | Oc1ccc(-c2cnc3[nH]cc(-c4ccc(F)cc4)c3c2)cc1O
13 | > 10 µM | > 10 µM | > 10 µM | > 10 µM | 1.06 µM | 4.26 µM | > 10 µM | > 10 µM | 52.4 µM | > 10 µM | 9.75 µM | – | 4.92 µM | > 1 µM | > 10 µM | COc1cc(/C=C/C(=O)CC(=O)/C=C/c2ccc(O)c(OC)c2)ccc1O [CURCUMIN]
14 | > 10 µM | 7.99 µM | 0.0713 µM | 2.05 µM | > 10 µM | 7.15 µM | > 10 µM | > 10 µM | 19.9 µM | 0.0405 µM | 0.0211 µM | – | 0.0929 µM | 0.00139 µM | > 10 µM | CCNc1cc(Nc2ccc(C(=O)N3CCC(N4CCOCC4)CC3)cc2OC)nc2[nH]cc(C(F)(F)F)c12
15 | > 10 µM | > 10 µM | 0.0114 µM | 0.64 µM | 0.0268 µM | 0.0235 µM | 3.69 µM | 2.2 µM | 20.9 µM | 0.0333 µM | 0.0067 µM | – | 0.0318 µM | 0.00058 µM | 0.396 µM | COC1=CC2C(=O)NC3=Cc4ccc(OC)cc4C(=C1OC)C32 (configuration not stated)
16 | > 10 µM | > 10 µM | 1.21 µM | > 10 µM | 0.323 µM | > 10 µM | > 10 µM | 5.33 µM | 21.6 µM | > 10 µM | 0.0796 µM | – | 0.111 µM | 0.00763 µM | 0.16 µM | COC(=N)c1nc2ccc3ncnc(Nc4ccc(OC)cc4F)c3c2s1
